Test results: patent US20110015226A1, “Treatment of Energy Utilization Disease” (SUMMIT CORPORATION PLC, priority 2008, published 2011)
Where two headings read alike, the source gives them in different places.

Tests used:
Assay type in all cases: biochemical
[1] = target: α-D-glucosidase (Bacillus) (Geobacillus stearothermophilus, UniProt A0ACH1E9U3); assay: Glycosidase inhibition: α-D-glucosidase (Bacillus); conditions: compounds tested at 0.8 mM
Description: (§1) The results tabulated below were obtained using commercially available glycosidases and p-nitrophenyl-substrates using standard methods described for example by Watson et al (1997) Phytochemistry 46 255-259. All enzymes and substrates were bought from Sigma. Enzyme and substrate solutions were made using sodium phosphate buffers at the pH optima values. The enzymes used were α-D-glucosidase Saccharomyces cerevisiae, Bacillus stearothermophilus, Oryzae sativa), β-D-glucosidase (Almond), α-D-mannosidase (Jack bean), α-D-galactosidase (Green coffee beans), β-D-galactosidase (Bovine liver), α-L-fucosidase (Bovine kidney), N-acetyl-β-D-glucosaminidase (Bovine kidney, Jack bean, Aspergillus oryzae), Naringinase (Penicillium decumbens) and amyloglucosidase (Aspergillus niger). All enzymes were used with the appropriate p-nitrophenyl substrates (5 mM). Amyloglucosidase activity was measured using amylopectin (0.1%) (Merck) mixed with sodium phosphate buffer, pH 4.5 in a glass bottle, and healed in a boiling water bath for 20 minutes to dissolve with released glucose measured using ‘Trinder’ glucose detection solution (Sigma).
(§2) All enzymes and para-nitrophenyl substrates were purchased from Sigma, with the exception of beta-mannosidase which came from Megazyme. Enzymes were assayed at 27° C. in 0.1M citric acid/0.2M disodium hydrogen phosphate buffers at the optimum pH for the enzyme. The incubation mixture consisted of 10 μl enzyme solution, 10 μl of 1 mg/ml aqueous solution of extract and 50 μl of the appropriate 5 mM para-nitrophenyl substrate made up in buffer at the optimum pH for the enzyme. The reactions were stopped by addition of 70 μl 0.4M glycine (pH 10.4) during the exponential phase of the reaction, which had been determined at the beginning using uninhibited assays in which water replaced inhibitor. Final absorbances were read at 405 nm using a Versamax microplate reader (Molecular Devices). Assays were carried out in triplicate, and the values given are means of the three replicates per assay. (See Watson, A. A., Nash, R. J., Wormald, M. R., Harvey, D. J., Dealler, S., Lees, E., Asano, N., Kizu, H., Kato, A., Griffiths, R. C., Cairns, A. J. and Fleet, G. W. J. (1997). Glycosidase-inhibiting pyrrolidine alkaloids from Hyacinthoides non-scripta. Phytochemistry 46 (2): 255-259.)

[2] = target: T1, α-D-glucosidase (Rice) (Oryza sativa subsp. japonica, UniProt Q653V7); assay: Glycosidase inhibition: α-D-glucosidase (Rice); conditions: for inhibition at 800 µM: compounds tested at 0.8 mM
T1 construct: purchased Sigma
T1 sequence (Q653V7 34-885): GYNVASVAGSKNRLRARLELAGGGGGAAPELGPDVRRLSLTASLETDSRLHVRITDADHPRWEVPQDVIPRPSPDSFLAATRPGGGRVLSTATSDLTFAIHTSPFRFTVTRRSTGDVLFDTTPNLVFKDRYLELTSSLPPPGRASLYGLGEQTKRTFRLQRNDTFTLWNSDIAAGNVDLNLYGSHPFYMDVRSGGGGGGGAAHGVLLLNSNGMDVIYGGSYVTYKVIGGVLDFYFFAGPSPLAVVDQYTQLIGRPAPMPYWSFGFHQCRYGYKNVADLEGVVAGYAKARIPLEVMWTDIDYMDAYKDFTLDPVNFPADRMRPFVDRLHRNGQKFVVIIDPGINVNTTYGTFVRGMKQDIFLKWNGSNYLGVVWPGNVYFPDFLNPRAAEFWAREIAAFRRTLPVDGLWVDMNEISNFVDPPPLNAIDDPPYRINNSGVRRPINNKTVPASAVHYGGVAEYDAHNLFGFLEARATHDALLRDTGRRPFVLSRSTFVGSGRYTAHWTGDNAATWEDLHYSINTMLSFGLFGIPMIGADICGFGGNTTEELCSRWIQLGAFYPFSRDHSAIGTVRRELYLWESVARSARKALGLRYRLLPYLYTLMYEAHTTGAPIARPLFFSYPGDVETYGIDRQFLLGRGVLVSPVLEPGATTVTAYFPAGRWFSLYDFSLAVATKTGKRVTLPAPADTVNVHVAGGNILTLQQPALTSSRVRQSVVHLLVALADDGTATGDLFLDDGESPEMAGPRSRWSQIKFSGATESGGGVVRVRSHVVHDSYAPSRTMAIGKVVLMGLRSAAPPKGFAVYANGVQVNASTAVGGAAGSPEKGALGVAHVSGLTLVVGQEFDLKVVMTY

[3] = test system: β-D-galactosidase Bovine liver; assay: Glycosidase inhibition: β-D-galactosidase Bovine liver; conditions: compounds tested at 0.8 mM
Description: as §1, §2

[4] = target: T2, α-L-fucosidase Bovine kidney (Bos taurus, UniProt Q2KIM0); assay: Glycosidase inhibition: α-L-fucosidase Bovine kidney; conditions: compounds tested at 0.8 mM
T2 construct: α-L-fucosidase (Bovine kidney); purchased Sigma; host or cells: bovine kidney
T2 sequence (Q2KIM0 23-468): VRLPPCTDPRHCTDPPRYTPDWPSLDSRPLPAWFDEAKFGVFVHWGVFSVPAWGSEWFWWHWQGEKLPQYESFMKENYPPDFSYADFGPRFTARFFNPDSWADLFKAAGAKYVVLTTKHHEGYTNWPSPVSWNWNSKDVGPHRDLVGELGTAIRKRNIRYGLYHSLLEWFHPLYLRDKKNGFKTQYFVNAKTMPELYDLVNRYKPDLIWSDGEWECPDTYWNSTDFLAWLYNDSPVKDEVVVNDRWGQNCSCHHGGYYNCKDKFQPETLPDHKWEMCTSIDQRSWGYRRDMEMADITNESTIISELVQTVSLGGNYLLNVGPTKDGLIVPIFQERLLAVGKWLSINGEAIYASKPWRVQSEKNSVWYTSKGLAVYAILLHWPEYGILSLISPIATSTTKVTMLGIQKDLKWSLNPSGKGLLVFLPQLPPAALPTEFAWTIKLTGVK

[5] = target: T3, N-acetyl-β-D-glucosaminidase (A. oryzae) (Aspergillus oryzae, UniProt Q8J2T0); assay: Glycosidase inhibition: N-acetyl-β-D-glucosaminidase (A. oryzae); conditions: compounds tested at 0.8 mM
T3 construct: purchased Sigma
T3 sequence (Q8J2T0 97-600): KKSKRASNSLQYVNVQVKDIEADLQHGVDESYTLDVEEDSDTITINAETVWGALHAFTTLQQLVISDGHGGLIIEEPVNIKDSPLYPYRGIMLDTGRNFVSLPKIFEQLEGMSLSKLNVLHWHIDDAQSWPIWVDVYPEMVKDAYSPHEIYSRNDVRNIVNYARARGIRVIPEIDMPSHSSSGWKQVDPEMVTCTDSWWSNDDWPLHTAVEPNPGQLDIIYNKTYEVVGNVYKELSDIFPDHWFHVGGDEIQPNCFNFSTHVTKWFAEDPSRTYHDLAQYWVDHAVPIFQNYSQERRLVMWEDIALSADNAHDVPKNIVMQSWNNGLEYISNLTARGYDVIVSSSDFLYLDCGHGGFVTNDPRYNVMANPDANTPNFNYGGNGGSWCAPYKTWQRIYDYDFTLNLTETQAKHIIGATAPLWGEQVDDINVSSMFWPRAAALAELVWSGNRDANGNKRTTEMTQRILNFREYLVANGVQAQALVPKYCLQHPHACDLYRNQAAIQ
Description: as §1, §2

[6] = target: T4, Amyloglucosidase Aspergillus niger (Aspergillus niger, UniProt P69328); assay: Glycosidase inhibition: Amyloglucosidase Aspergillus niger; conditions: compounds tested at 0.8 mM
T4 construct: purchased Sigma
T4 sequence (P69328 25-640): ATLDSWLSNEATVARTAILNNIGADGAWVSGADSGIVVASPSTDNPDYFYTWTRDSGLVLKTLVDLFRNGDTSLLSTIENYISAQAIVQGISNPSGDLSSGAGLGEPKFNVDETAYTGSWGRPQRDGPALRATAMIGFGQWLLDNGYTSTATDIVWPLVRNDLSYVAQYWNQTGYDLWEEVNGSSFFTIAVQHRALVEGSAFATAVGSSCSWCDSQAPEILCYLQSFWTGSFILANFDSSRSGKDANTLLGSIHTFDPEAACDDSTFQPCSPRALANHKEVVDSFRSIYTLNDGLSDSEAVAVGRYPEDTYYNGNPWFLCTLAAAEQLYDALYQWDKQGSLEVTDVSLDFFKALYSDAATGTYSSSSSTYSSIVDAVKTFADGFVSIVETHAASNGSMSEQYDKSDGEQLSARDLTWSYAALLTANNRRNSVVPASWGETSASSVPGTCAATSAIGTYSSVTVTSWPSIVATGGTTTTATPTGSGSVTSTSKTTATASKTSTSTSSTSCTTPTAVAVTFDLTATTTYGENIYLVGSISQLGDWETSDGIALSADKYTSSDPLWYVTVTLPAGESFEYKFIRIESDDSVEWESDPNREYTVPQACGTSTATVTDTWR
Description: as §1, §2

[7] = target: T5, β-Glucuronidase Bovine liver (Bos taurus, UniProt A3KMY8); assay: Glycosidase inhibition: β-Glucuronidase Bovine liver; conditions: for inhibition at 800 µM: compounds tested at 0.8 mM;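 on all read-outs here: bovine liver β-glucuronidase acting on p-nitrophenyl β-D-glucuronide substrate in citric acid/disodium hydrogen phosphate buffer, pH 5.0, 27 °C, mean of triplicate runs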
T5 construct: The assay involved the use of Bovine liver β-glucuronidase; purchased Sigma; host or cells: bovine liver
T5 sequence (A3KMY8 1-652): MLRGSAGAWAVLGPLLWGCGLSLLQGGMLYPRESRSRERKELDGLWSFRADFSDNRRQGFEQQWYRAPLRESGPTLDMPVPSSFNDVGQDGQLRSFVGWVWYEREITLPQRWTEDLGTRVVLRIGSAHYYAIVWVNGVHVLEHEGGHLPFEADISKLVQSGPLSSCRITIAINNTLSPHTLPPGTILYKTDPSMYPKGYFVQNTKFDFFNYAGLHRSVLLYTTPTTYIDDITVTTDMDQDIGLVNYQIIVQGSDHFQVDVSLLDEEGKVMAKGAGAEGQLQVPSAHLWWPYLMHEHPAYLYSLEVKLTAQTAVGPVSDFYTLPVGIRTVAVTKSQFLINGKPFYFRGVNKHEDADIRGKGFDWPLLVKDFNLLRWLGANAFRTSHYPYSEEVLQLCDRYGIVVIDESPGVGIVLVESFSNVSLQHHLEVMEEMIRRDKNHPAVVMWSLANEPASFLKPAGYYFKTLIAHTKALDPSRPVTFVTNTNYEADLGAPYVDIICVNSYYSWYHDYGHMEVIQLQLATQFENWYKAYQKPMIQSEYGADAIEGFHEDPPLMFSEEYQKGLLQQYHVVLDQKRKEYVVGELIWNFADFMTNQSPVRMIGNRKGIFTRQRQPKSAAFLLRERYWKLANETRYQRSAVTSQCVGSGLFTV

[8] = read-out: IC50 against mammalian glucuronidase
[9] = pH 5.0, 27° C., p-nitrophenyl β-D-glucuronide, read-out: IC50, β-Glucuronidase Bovine liver

α-D-glucosidase (Bacillus), sequence (A0ACH1E9U3 entry or part of it): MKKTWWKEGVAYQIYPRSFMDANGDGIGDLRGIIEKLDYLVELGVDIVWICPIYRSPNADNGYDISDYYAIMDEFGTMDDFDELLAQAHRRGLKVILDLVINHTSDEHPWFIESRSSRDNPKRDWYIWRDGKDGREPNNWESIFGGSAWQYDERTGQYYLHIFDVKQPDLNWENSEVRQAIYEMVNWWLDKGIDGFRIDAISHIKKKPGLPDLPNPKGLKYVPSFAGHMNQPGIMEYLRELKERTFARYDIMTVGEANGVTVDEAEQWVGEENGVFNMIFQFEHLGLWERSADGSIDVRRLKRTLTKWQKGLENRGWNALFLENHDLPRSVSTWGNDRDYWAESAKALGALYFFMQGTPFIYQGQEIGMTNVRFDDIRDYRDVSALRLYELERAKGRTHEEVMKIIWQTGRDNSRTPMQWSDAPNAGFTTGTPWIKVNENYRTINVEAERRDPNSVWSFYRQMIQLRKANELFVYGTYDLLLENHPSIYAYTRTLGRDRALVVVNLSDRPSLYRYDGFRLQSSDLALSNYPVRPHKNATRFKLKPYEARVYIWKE

Structure (SMILES) | inhibition at 800 µM [1] | IC50 [2] | % inhibition, β-D-galactosidase Bovine liver [3] | inhibition at 800 µM [4] | inhibition at 800 µM [5] | inhibition at 800 µM [6] | inhibition at 800 µM [7] | inhibition at 800 µM [2] | IC50 ([2]; read-out: IC50, α-D-glucosidase (Rice)) | IC50 [7, 8] | IC50 [7, 9]
OC[C@H]1NC[C@H](O)[C@@H](O)[C@@H]1O [DNJ, 1-deoxynojirimycin, reference compound] | 100% | 900 nM | NI (NI = no inhibition) | < 10% | < 10% | 32% | < 10% | – | – | – | –
O=C(O)CCN1C[C@H](O)[C@@H](O)[C@H](O)[C@H]1CO [Compound T1] | < 50% | – | – | < 50% | < 50% | 53% | – | 99.1% | 2400 nM | 50 µM | –
O=C(O)[C@H]1NC[C@H](O)[C@@H](O)[C@@H]1O [Compound G2, 2S,3R,4R,5S-trihydroxypiperidine-2-carboxylic acid] | 49% | – | NI (NI = no inhibition) | < 10% | < 10% | < 10% | 90% | 55% | – | 107 µM | –
CCCCOC(=O)[C@@H]1[C@@H](O)[C@H](O)[C@@H](O)CN1CCCC [Compound T2, (2S,3R,4R,5S)-Butyl 1-butyl-3,4,5-trihydroxypiperidine-2-carboxylate] | < 50% | – | – | < 50% | < 50% | < 50% | – | < 50% | – | – | 280 µM
O=C(O)CN1[C@H](CO)[C@@H](O)[C@H](O)[C@H]1CO [Compound S2, 2-((2R,3R,4R,5R)-3,4-Dihydroxy-2,5-bis(hydroxymethyl)pyrrolidin-1-yl)acetic acid] | 92.7% | – | 60% | < 50% | < 50% | < 50% | – | < 50% | – | – | 507 µM
